Laboratory results taken from patent US20080262043A1, “Solid Crystalline Form of Pantoprazole Free Acid, Salts Derived Therefrom and Process for Their Preparation” (MEDICHEM, S.A., priority 2005, published 2008).

Test: Solid-state stability of the crystalline form upon drying under vacuum
Assay type: physicochemical
Conditions: drying under vacuum at approximately 40° C. for approximately 2 hours

Question: Which “change in the crystalline structure upon drying” value does the source give for COc1ccnc(C[S+]([O-])c2nc3cc(OC(F)F)ccc3[nH]2)c1OC (stereo not shown) [Form III pantoprazole free acid, 5-(difluoromethoxy)-2-[[(3,4-dimethoxy-2-pyridinyl)methyl]sulfinyl]-1H-benzimidazole] here?
Answer: Its value is “no change in the crystalline structure”.
